Assay results taken from patent US9510593B2, “S-benzylthiouracil compounds and methods of enhancing plant root growth” (Valent BioSciences Corporation, priority 2014, dated 2016).
Entries after “also recorded” stand apart in the source; their conditions may differ.

Experiments:
Assay type in all cases: in vivo
[1] = tested on: Maize (cultivar; Kuromochi); assay: Maize growth enhancement by seed treatment under low temperature stress; settings: for Average weight of the shoots: 2.5° C. for 4 days, 18th day after seeding, control 1.50
Experimental: Maize seeds (cultivar; Kuromochi) were treated with Compound 1 at dose rates of 0.005 gram to 0.5 gram per 100 kilogram seeds. The seeds were sown into a soil pot (one seed/pot) and then cultivated in a growth chamber at a temperature of 27° C. and a day length of 16 hours for 10 days. On the 10th day after seeding, the plants were subjected to a temperature of 2.5° C. for 4 days at a day length of 16 hours. Following the stress treatment, they were cultivated for an additional 4 days in a growth chamber at a temperature of 27° C. and a day length of 16 hours. On the 18th day after seeding, the fresh shoot weight of each plant was measured for 5 replicates.

[2] = tested on: Rice (cultivar; Nipponbare); assay: Rice growth enhancement by seed treatment under low temperature stress; parameters: Average weight of the shoots: unit not given here; settings: for Average weight of the shoots: 4° C. for 6 days, 27th day, control 15.4
Experimental: Rice seeds (cultivar; Nipponbare) were treated with the Compound 1 at dose rates of 0.5 gram to 50 grams per 100 kilogram seeds. Treated rice seeds were sown and cultivated in 2-fold diluted Kimura B hydroponic solution (Plant Science 119:39-47 (1996) in a growth chamber at a temperature of 28° C. (day)/23° C. (night) and a day length of 12 hours for 10 days.
Following hydroponic cultivation for 10 days the plants were exposed to low temperature stress at 4° C. for 6 days at a day length of 12 hours in a growth chamber. After the low temperature stress treatment, the plants were transferred to 4-fold diluted Hoagland's hydroponic solution (California Agricultural Experiment Station 1950 Circular 347 pp. 34) and cultivated for […] at a temperature of 28° C. and a day length of 12 hours. On the 27th day of the sequential hydroponic cultivation, each fresh shoot weight of the plant was measured for 4 replicates.

[3] = tested on: radish cv. Cherry Belle; assay: Radish assay, continuous exposure; settings: for Root Length / Shoot Length: 6 days; for Root Length: control 3.2; for Shoot Length: control 4.0
Description: In order to determine if a root crop was sensitive to a S-Benzylthiouracil, we tested the effect of Compound 1 on radish cv. Cherry Belle (Table 21).

[4] = tested on: rice; assay: Rice pouch assay: growth of primary root and shoot; settings: for Shoot Length: control 1.7
Experimental: Seeds were placed in germination pouches consisting of germination paper as an insert in a gas-permeable 16×14 cm plastic pouch (CYG Pouch; Mega International, St. Paul, Minn.). In pouch solution evaluation, S-Benzylthiouracil compounds or their salts were dissolved in a small volume of DMSO and added to sterile water with a maximum of 0.5% v/v DMSO at final dilution. The S-Benzylthiouracil solution was subsequently pipetted into the growth pouch, followed by the addition of seeds of the crop being tested. The pouches were arranged in a randomized complete block design in growth racks and placed in 19-liter polycarbonate food storage containers (Rubbermaid Commercial Products, Winchester, Va.). The sealed containers were held in an upright growth cabinet maintained at 25 C with a 12 hour light: 12 hour dark photoperiod. For rice, plants were harvested at 6 d, while in mungbean and corn, the plants were harvested at 4 d post sowing. Measurements were performed on the primary root and shoot of each seedling. The growth of the primary root of rice was examined in the pouch assay system. The results of the testing, presented as percent change in root length across all S-Benzylthiouracil compounds, are shown below.

[5] = tested on: Rice (cultivar; Nipponbare); assay: Rice growth enhancement by hydroponic treatment under drought stress
Experimental: Germinated rice seeds (cultivar; Nipponbare) were cultivated in 2-fold diluted Kimura B hydroponic solution in a growth chamber at a temperature of 28° C. (day)/23° C. (night) and a day length of 12 hours for 14 days. Drought stress was provided by withdrawal of the hydroponic solution from the culture tube for 2 days in a growth chamber at a temperature of 28° C. (day)/23° C. (night) and a day length of 12 hours. After the drought treatment, plants were cultivated in 2-fold diluted Hoagland's hydroponic solution in a growth chamber at a temperature of 28° C. (day)/23° C. (night)) and a day length of 12 hours for 14 days. Then the total fresh weight of the shoots of 5 plants was measured for 3 replicates.
Germinated rice seeds (cultivar; Nipponbare) were cultivated in 2-fold diluted Kimura B hydroponic solution including 1 ppm of the Compound 1 and 0.01% dimethyl sulfoxide in a growth chamber at a temperature of 28° C. (day)/23° C. (night)) and a day length of 12 hours for 14 days. As an untreated control group, the plants were cultivated in the hydroponic solution without Compound 1.
Drought stress was provided by withdrawal of the hydroponic solution from the culture tube for 2 days in a growth chamber at a temperature of 28° C. (day)/23° C. (night) and a day length of 12 hours. After the drought treatment, the treated plants were cultivated in 2-fold diluted Hoagland's hydroponic solution in a growth chamber at a temperature of 28° C. (day)/23° C. (night) and a day length of 12 hours for 14 days, and then total fresh weight of the shoots of 5 plants was examined for 3 replicates.

[6] = 0.5 grams/100-kg seeds, low temperature stress

## Oc1ccnc(SCc2cccc(F)c2)n1 [Compound 1, S-(3-Fluorobenzyl)-2-thiouracil]
[1]; 0.005 grams/100-kg seeds
  Average weight of the shoots: 1.78 gram/plant
[1]; 0.005 grams/100-kg seeds, low temperature stress
  Percent (shoot weight, untreated control = 100): 119%
[1]; 0.05 grams/100-kg seeds
  Average weight of the shoots: 2.06 gram/plant
[1]; 0.05 grams/100-kg seeds, low temperature stress
  Percent (shoot weight, untreated control = 100): 138%
[1]; 0.5 grams/100-kg seeds
  Average weight of the shoots: 1.85 gram/plant
[1]; [6]
  Percent (shoot weight, untreated control = 100): 124%
[1]; across 0.005 to 0.5 gram per 100 kilogram seeds, low temperature stress
  Average fresh shoot weight versus untreated control, in words: larger than that of the untreated control
[2]; 0.5 grams/100-kg seeds
  Average weight of the shoots: 19.7
[2]; [6]
  Percent (shoot weight, untreated control = 100): 128%
[2]; 5 grams/100-kg seeds
  Average weight of the shoots: 39.8
[2]; 5 grams/100-kg seeds, low temperature stress
  Percent (shoot weight, untreated control = 100): 258%
[2]; 50 grams/100-kg seeds
  Average weight of the shoots: 34.8
[2]; 50 grams/100-kg seeds, low temperature stress
  Percent (shoot weight, untreated control = 100): 226%
[2]; across 0.5 to 50 grams per 100 kilogram seeds, low temperature stress
  Average fresh shoot weight versus untreated control, in words: larger than that of the untreated control
[3]; 1 ppm
  Root Length: 4.1 cm
  Shoot Length: 4.9 cm
[3]; 10 ppm
  Root Length: 3.0 cm
  Shoot Length: 3.3 cm
[3]; continuous exposure
  Effect on radish root and shoot growth, in words: increased root and shoot growth
[4]; 10 mg/liter, 6 days after sowing, untreated control 9.67
  Root Length: 10.80 cm
[4]; 30 mg/liter, 6 days after sowing, untreated control 9.67
  Root Length: 10.34 cm
[4]; 7.5 ppm, 6 days after treatment
  Shoot Length: 2.2 cm
[4]; 7.5 ppm, 6 days after treatment, control 5.1
  Root Length: 7.8 cm
[4]; 10 ppm (10 mg/L), benzyl ring substitutions, vs control
  Percent Change in Primary Root Length in Rice: 19.8%
[4]; 10 ppm, compounds and water-soluble salts, 6 days after sowing
  Percent Change (rice primary root growth): 19.8%
[4]; 30 ppm, 6 days after treatment
  Shoot Length: 2.2 cm
[4]; 30 ppm, 6 days after treatment, control 5.1
  Root Length: 7.3 cm
[4]; 100 ppm, 6 days after treatment
  Shoot Length: 1.9 cm
[4]; 100 ppm, 6 days after treatment, control 5.1
  Root Length: 5.2 cm
[4]; Oryza sativa, 144 h, 10 ppm (10 mg/L), benzyl ring substitutions, vs control, read-out: Percent Change in Primary Root Length in Rice
  change in vivo at 10 ppm: 19.8%
[4]; rice pouch assay, compared to control
  Effect on rice root growth, in words: greatest increases in root length compared to all of the other tested compounds; also recorded: dose-dependent increase in root length
[5]; 1 ppm in hydroponic solution, drought stress
  Percent (shoot weight, untreated control = 100): 112%
[5]; 1 ppm in hydroponic solution, drought stress 2 days, control 0.43
  Average weight of the shoots: 0.48 gram/5 plants
[5]; 1 ppm, drought stress
  Average shoot weight versus untreated control, in words: larger than that of the untreated control
